Results on 6 compounds are retold here after patent publication US20050256064A1, “9-Desoxoerythromycin compounds as prokinetic agents” (priority 2003, published 2005).

Data set [1] concerns the target T1, human motilin receptor (Homo sapiens, UniProt O43193).
T1 construct: expressed in transfected cells; host or cells: HEK293
Particulars: HEK293 cells expressing human motilin receptor; as reported in Anal. Biochemistry; read-out: Motilin Agonist EC50; cited from earlier work.

In data set [2] the target is T1, human motilin receptor. The data set can be described thus: Motilin agonist potency (cell based assay). Particulars: HEK293 cells expressing human motilin receptor. As for the experimental part: The motilin agonist potency of compound I-b was evaluated in a cell based assay, according to the procedure disclosed in Carreras et al., Anal. Biochemistry, 300, 146-151 (2002), the disclosure of which is incorporated herein by reference. Briefly, in this method HEK293 cells are transformed with a synthetic gene for the human motilin receptor. Expression of the synthetic gene produces the human motilin receptor; then the activation of the receptor by the binding of a test compound thereto is measured.

The test system of data set [3] is rabbit duodenum tissue. The data set can be described thus: Motilin agonist potency (tissue based assay), rabbit duodenum contractility. Particulars: Oryctolagus cuniculus, rabbit duodenum contraction. As for the experimental part:
The motilin agonist potency of compound I-b also was evaluated using a tissue based assay, using rabbit duodenum tissue-based contractility assay, generally following the procedure of Depoortere et al., J. Gastrointestinal Motility, 1, 150-159 (1989), the disclosure of which is incorporated herein by reference. Briefly, this method measures the ability of a compound to induce contractions in rabbit duodenal tissue, a tissue that responds to motilin.
Strips of rabbit duodenum were tested and qualified for use in the assay by as follows. Segments of rabbit duodenum, 20-30 cm distal to the pylorus were split longitudinally. The mucosa was removed and 2×2×15 mm strips of longitudinal smooth muscle were sliced from the segments. The strips were bathed in oxygenated Krebs solution at 37° C., with 1.5 g of tension, and contractions measured auxotonically. […] Qualified strips were mounted on the test apparatus.
Compound I-b was dissolved in dimethylsulfoxide (DMSO) to a final concentration of 10 mM. […]
The EC50 (concentration producing a half-maximal effect) was calculated as follows. The basal tension was subtracted from the compound-induced tension for each reading. […] Both R and Rmax are expressed as a fraction of the 1 μM carbachol contraction and range from 0 to 1. […]

The subject of data set [4] is S. pneumoniae. Nature of the data set: Antibacterial activity, MIC by serial dilutions on 96-well microtiter plates. It is filed as cell-based. To be noted: for MIC: Streptococcus pneumoniae.
Data set [5] concerns the target cytochrome P450 3A4 (Homo sapiens, UniProt P08684). Nature of the data set: Cytochrome P450 inhibition. The format is in vitro ADME. As for the experimental part:
The inhibitory effect of compound I-b on cytochrome P450 3A4, the most abundant of the cytrochrome P450 enzymes responsible for the metabolism of many drugs, was determined, using a method based on Stresser et al., Drug Metabolism Disposition, 30 (7), 845-52. A strong inhibitory effect is undesirable, as indicative of a high probability of interference with other drugs.

In data set [6] the test system is rabbit duodenum strips. The data set can be described thus: Chronic dosing tachyphylaxis model. To be noted: for % of the initial contraction after the fourth dose: dosed at EC90 at 0, 30, 60 and 90 min, response at 0 min set as 100%. Here is the method:
Rabbit duodenum strips were qualified as described above and dosed with test compound at its EC90 concentration. The contraction was recorded. When peak contractile force was reached, carbachol (1 μM) was added, and any further contraction was recorded. The resulting contraction is expressed as a fraction of the 1 μM carbachol contraction. The test compound and carbachol were washed away by changing the bath solution twice. The procedure was repeated at 30, 60, and 90 min following the initial dosing.

Data set [7] has as its target hERG potassium channel (Homo sapiens, UniProt Q12809). Nature of the data set: in vitro. Particulars: human. The text has this:
(§1) Stanat et al., Mol. Cellular Biochem., 254, 1-7 (2003), “Characterization of the Inhibitory Effects of Erythromycin and Clarithromycin on the HERG Potassium Channel”.

In data set [8] the target is hERG (human ether-a-go-go related gene) potassium channel (Homo sapiens, UniProt Q12809). The data set can be described thus: in vitro.
hERG (human ether-a-go-go related gene) potassium channel, sequence (Q12809 whole entry): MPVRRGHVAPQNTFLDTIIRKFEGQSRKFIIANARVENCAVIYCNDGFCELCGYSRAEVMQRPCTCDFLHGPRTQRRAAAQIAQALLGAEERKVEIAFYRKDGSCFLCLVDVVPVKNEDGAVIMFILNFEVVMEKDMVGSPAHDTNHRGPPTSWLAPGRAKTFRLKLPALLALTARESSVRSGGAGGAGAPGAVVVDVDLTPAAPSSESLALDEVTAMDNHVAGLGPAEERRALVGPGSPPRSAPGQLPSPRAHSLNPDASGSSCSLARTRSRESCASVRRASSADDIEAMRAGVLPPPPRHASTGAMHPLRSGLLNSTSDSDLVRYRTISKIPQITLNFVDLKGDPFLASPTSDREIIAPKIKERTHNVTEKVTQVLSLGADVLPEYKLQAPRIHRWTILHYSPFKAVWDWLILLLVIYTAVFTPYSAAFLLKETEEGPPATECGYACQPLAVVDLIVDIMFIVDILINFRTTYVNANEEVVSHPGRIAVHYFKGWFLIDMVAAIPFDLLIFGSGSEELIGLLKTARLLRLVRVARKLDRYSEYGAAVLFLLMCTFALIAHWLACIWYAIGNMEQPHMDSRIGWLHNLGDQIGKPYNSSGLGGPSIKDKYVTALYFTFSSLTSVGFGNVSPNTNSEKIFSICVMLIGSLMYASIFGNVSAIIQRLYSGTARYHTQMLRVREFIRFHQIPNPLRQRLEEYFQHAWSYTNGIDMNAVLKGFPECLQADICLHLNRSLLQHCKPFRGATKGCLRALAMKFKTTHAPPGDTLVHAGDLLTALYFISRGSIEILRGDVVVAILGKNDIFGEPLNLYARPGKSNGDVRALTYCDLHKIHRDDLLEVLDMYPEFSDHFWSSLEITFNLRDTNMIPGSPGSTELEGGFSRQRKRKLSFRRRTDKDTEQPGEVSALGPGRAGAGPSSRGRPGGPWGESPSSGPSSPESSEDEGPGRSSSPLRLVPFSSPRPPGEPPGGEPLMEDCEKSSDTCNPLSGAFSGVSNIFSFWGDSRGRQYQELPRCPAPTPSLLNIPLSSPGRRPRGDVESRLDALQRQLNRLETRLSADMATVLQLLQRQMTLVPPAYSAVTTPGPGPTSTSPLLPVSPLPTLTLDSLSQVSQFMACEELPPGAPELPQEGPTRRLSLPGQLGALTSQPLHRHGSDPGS
Text: as §1

Values after ≈ are worked out from the molar mass of the structure shown. Read-outs that look alike come from different tables or passages of the source.

hERG potassium channel, sequence (Q12809 whole entry): as above
T1 sequence (O43193 whole entry): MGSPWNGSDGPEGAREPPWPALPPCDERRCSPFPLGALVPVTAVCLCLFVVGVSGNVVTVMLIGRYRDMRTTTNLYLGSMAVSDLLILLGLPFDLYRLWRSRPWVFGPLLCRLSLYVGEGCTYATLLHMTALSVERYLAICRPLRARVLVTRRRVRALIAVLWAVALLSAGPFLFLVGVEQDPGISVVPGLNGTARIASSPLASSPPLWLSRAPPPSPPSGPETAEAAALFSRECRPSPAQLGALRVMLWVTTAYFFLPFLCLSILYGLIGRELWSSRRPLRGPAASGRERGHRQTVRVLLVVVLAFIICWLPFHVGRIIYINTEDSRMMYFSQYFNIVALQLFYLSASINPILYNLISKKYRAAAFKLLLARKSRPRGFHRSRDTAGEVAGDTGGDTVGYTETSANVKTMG
cytochrome P450 3A4, sequence (P08684 whole entry): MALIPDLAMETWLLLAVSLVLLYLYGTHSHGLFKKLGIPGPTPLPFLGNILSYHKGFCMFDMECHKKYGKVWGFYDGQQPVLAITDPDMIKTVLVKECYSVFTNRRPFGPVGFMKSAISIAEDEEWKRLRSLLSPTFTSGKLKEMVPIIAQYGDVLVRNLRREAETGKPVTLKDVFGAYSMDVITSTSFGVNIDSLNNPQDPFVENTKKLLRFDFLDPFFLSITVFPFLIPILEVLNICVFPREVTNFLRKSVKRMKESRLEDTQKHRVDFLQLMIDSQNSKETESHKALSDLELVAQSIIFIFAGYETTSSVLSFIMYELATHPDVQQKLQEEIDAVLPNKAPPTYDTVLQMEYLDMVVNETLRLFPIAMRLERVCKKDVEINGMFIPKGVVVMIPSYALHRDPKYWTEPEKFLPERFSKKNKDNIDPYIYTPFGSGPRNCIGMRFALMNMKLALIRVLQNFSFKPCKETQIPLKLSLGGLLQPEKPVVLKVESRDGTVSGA

For the compound `CC[C@H]1OC(=O)[C@H](C)[C@@H](OC2C[C@@](C)(OC)C[C@H](C)O2)[C@H](C)[C@@H](OC2O[C@H](C)C[C@H](N(C)CC)[C@H]2O)[C@@]2(C)CC(C)=C(O2)[C@H](C)[C@@H](O)[C@H]1C` (some centres unmarked) [ABT 229], in data set [1], the EC50 was 0.04 µM.
Take `CC[C@H]1OC(=O)[C@H](C)[C@@H](O[C@H]2C[C@@](C)(OC)[C@@H](O)[C@H](C)O2)[C@H](C)[C@@H](O[C@@H]2O[C@H](C)C[C@H](N(C)C(C)C)[C@H]2O)C(C)(O)C[C@@H](C)C[C@H](C)[C@@H](O)[C@]1(C)O` (some centres unmarked) [Compound I-b, N-Desmethyl-N-isopropyl-9-desoxoerythromycin A]: the EC50 in data set [2] was determined as 1.2 µM; in data set [3] (normalized to 1 μM carbachol, read-out: EC50 (concentration producing a half-maximal effect)) it was 0.18 µM. For the same compound, the EC90 in data set [3] (approximated as ten times EC50 and verified, read-out: EC90 (concentration producing 90% of the maximal effect)) was determined as 1.8 µM. Besides, the MIC is 50 µg/mL (≈ 66.8 µM) in data set [4] (ATCC6301, S. pneumoniae strain ATCC 6301, read-out: Minimum Inhibitory Concentration (MIC)); 50 µg/mL (≈ 66.8 µM) in data set [4] (ATCC49619, S. pneumoniae strain ATCC 49619, read-out: Minimum Inhibitory Concentration (MIC)); over 200 µg/mL in data set [4] (ATCC700671, S. pneumoniae strain ATCC 700671, read-out: Minimum Inhibitory Concentration (MIC)). Also, the antibacterial activity entry in data set [4] (erythromycin A sensitive strains of S. pneumoniae, in words) was “low antibacterial activity”. Besides, the affinity in data set [5] corresponds to a Ki of 9.9 µM. The “tachyphylaxis effect (FIG. 1)” value in data set [6] (contractile responses at 0, 30, 60, 90 min, in words) was “distinctly less pronounced than that of ABT 229”. The “% of the initial contraction after the fourth dose” value in data set [6] was found to be 39±13%. The same compound displayed an inhibition at 10 µM in data set [7] of 74%. This compound came in with an inhibition at 30 µM in data set [7] of 95%.
`CCC(C)N(C)[C@H]1C[C@@H](C)O[C@@H](O[C@@H]2[C@@H](C)[C@H](O[C@H]3C[C@@](C)(OC)[C@@H](O)[C@H](C)O3)[C@@H](C)C(=O)O[C@H](CC)[C@@](C)(O)[C@H](O)[C@@H](C)C[C@H](C)CC2(C)O)[C@@H]1O` (some centres unmarked) [Compound I-c, N-Desmethyl-N-sec-butyl-9-desoxoerythromycin A]: in data set [7], at 10 µM the inhibition was 26.5% and the inhibition at 30 µM came to 70.3%.
Taken in the same sequence, the figures for `CC[C@H]1OC(=O)[C@H](C)[C@@H](O[C@H]2C[C@@](C)(OC)[C@@H](O)[C@H](C)O2)[C@H](C)[C@@H](O[C@@H]2O[C@H](C)C[C@H](N(C)CC(C)C)[C@H]2O)C(C)(O)C[C@@H](C)C[C@H](C)[C@@H](O)[C@]1(C)O` (some centres unmarked) [Compound I-d, N-Desmethyl-N-isobutyl-9-desoxoerythromycin A] were 33.1% and 71.4%.
Take `CCC1OC(=O)C(C)C(OC2CC(C)(OC)C(O)C(C)O2)C(C)C(OC2OC(C)CC(N(C)CCO)C2O)C(C)(O)CC(C)CC(C)C(O)C1(C)O` (centres unmarked) [Compound I-e, N-Desmethyl-N-(2-hydroxyethyl)-9-desoxoerythromycin A]: in data set [6], the “% of the initial contraction after the fourth dose” value amounted to 85±11%. Moreover, the results for the “Inhibition (%) at Specified Compound Concentration” value in data set [8] (10 µM) and in data set [8] (30 µM) were 57.1% and 84.3%, respectively.
As to `CC[C@H]1OC(=O)[C@H](C)[C@@H](O[C@H]2C[C@@](C)(OC)[C@@H](O)[C@H](C)O2)[C@H](C)[C@@H](O[C@@H]2O[C@H](C)C[C@H](N(C)C)[C@H]2O)[C@](C)(O)C[C@@H](C)C(=O)[C@H](C)[C@@H](O)[C@]1(C)O` [Erythromycin A, reference compound], the MIC in data set [4] (ATCC6301, read-out: Minimum Inhibitory Concentration (MIC)) was determined as 0.025 µg/mL (≈ 0.0341 µM); in data set [4] (ATCC49619, read-out: Minimum Inhibitory Concentration (MIC)) it was 0.049 µg/mL (≈ 0.0668 µM); in data set [4] (ATCC700671, read-out: Minimum Inhibitory Concentration (MIC)), 0.049 µg/mL (≈ 0.0668 µM).

For orientation: Ki means the equilibrium dissociation constant of an inhibitor or competing ligand from its target. The term inhibition denotes how much of the control response was suppressed. A low value points to a response near the control.
